{"source": "the supplement of paper PMC10307832", "assay_in_all_cases": "relative viability (nuclei count vs DMSO), 5 days (fraction); higher = more cells survive", "key": {"AZD1208 + Lapatinib": {"compound": "N[C@@H]1CCCN(c2c(/C=C3\\SC(=O)NC3=O)cccc2-c2ccccc2)C1 [AZD1208] + CS(=O)(=O)CCNCc1ccc(-c2ccc3ncnc(Nc4ccc(OCc5cccc(F)c5)c(Cl)c4)c3c2)o1 [Lapatinib] (partner 2 µM)", "summary_of_the_method": "(§1)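 Relative viability divides the nuclei count in treated wells by that in vehicle wells. Lung cancer cell lines were seeded in 1536-well plates, dosed by pin tool the next day, and fixed and stained after 5 days in one step with final 0.05% Triton X-100, 1% formaldehyde and 1 ug/ml Hoechst. Dosing was a single drug or a fixed anchor-drug dose plus five library-drug doses (not always all listed) in √10 steps, and values are medians of duplicate plates imaged at 4×.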"}, "AZD1208 + Navitoclax": {"compound": "N[C@@H]1CCCN(c2c(/C=C3\\SC(=O)NC3=O)cccc2-c2ccccc2)C1 [AZD1208] + CC1(C)CCC(c2ccc(Cl)cc2)=C(CN2CCN(c3ccc(C(=O)NS(=O)(=O)c4ccc(N[C@H](CCN5CCOCC5)CSc5ccccc5)c(S(=O)(=O)C(F)(F)F)c4)cc3)CC2)C1 [Navitoclax] (partner 0.5 µM)", "summary_of_the_method": "as §1"}, "AZD1208 + Palbociclib": {"compound": "N[C@@H]1CCCN(c2c(/C=C3\\SC(=O)NC3=O)cccc2-c2ccccc2)C1 [AZD1208] + CC(=O)c1c(C)c2cnc(Nc3ccc(N4CCNCC4)cn3)nc2n(C2CCCC2)c1=O [Palbociclib] (partner 0.5 µM)", "summary_of_the_method": "as §1"}, "XMD14-99 + Olaparib": {"compound": "CN1CCN(CC1)C2=CC(=C(C=C2)NC3=NC(=C(S3)C(=O)C4=C(C=CC=C4Cl)Cl)N)OC [XMD14-99] + O=C(c1cc(Cc2n[nH]c(=O)c3ccccc23)ccc1F)N1CCN(C(=O)C2CC2)CC1 [Olaparib] (partner 8 µM)", "summary_of_the_method": "as §1"}}}
{"cell line": "UMC-11", "values": [{"measurement": "relative viability", "setting": "AZD1208 + Lapatinib; first compound 0.08 µM", "value": 0.819}, {"measurement": "relative viability", "setting": "AZD1208 + Lapatinib; first compound 0.253 µM", "value": 0.739}, {"measurement": "relative viability", "setting": "AZD1208 + Lapatinib; first compound 0.8 µM", "value": 0.679}, {"measurement": "relative viability", "setting": "AZD1208 + Lapatinib; first compound 2.53 µM", "value": 0.487}, {"measurement": "relative viability", "setting": "AZD1208 + Lapatinib; first compound 8 µM", "value": 0.466}, {"measurement": "relative viability", "setting": "AZD1208 + Navitoclax; first compound 0.08 µM", "value": 0.272}, {"measurement": "relative viability", "setting": "AZD1208 + Navitoclax; first compound 0.253 µM", "value": 0.301}, {"measurement": "relative viability", "setting": "AZD1208 + Navitoclax; first compound 0.8 µM", "value": 0.251}, {"measurement": "relative viability", "setting": "AZD1208 + Navitoclax; first compound 2.53 µM", "value": 0.236}, {"measurement": "relative viability", "setting": "AZD1208 + Navitoclax; first compound 8 µM", "value": 0.195}, {"measurement": "relative viability", "setting": "AZD1208 + Palbociclib; first compound 0.08 µM", "value": 0.293}, {"measurement": "relative viability", "setting": "AZD1208 + Palbociclib; first compound 0.253 µM", "value": 0.281}, {"measurement": "relative viability", "setting": "AZD1208 + Palbociclib; first compound 0.8 µM", "value": 0.291}, {"measurement": "relative viability", "setting": "AZD1208 + Palbociclib; first compound 2.53 µM", "value": 0.308}, {"measurement": "relative viability", "setting": "AZD1208 + Palbociclib; first compound 8 µM", "value": 0.262}, {"measurement": "relative viability", "setting": "XMD14-99 + Olaparib; first compound 0.08 µM", "value": 0.363}, {"measurement": "relative viability", "setting": "XMD14-99 + Olaparib; first compound 0.8 µM", "value": 0.313}, {"measurement": "relative viability", "setting": "XMD14-99 + Olaparib; first compound 2.53 µM", "value": 0.345}, {"measurement": "relative viability", "setting": "XMD14-99 + Olaparib; first compound 8 µM", "value": 0.288}]}
